Earlier results, collected in patent US7834015B2, “Pyrrolo[1,2-a] pyrazin-1(2H)-one and pyrrolo[1,2-d][1,2,4]triazin-1(2H)-one derivatives as inhibitors of poly(ADP-ribose)polymerase (PARP)” (Instituto di Ricerche Di Biologia Molecolare P. Angeletti …, priority 2006, dated 2010).

Tested on: ischemia and reperfusion of the heart or skeletal muscle
Details: rabbits

SMILES	reduced infarct size (single injection 1 mg/kg)	reductions in infarct size in the heart (single injection 10 mg/kg, one minute before occlusion or one minute before reperfusion)
Oc1cccc2c(O)nccc12 [1,5-dihydroxyisoquinoline]	38-48%	
NC(=O)c1cccc(N)c1 [3-amino-benzamide]		32-42%
